Experimental data as given in US10150728B2, “Alkylene derivatives” (Shionogi & Co., Ltd., priority 2013, dated 2018).

Each compound was assayed against recombinant human ACC2 (Homo sapiens (Human), UniProt O00763) (assay: Measurement of inhibitory activity on human ACC2 (MALDI-TOF MS, acetyl CoA to malonyl CoA conversion)). Details: Tables 155-159.
Type: biochemical
Summary of the method: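 His-tagged human ACC2 (residues 27–2458) from baculovirus-infected Sf-9 cells was preincubated 1 h in pH 7.4 HEPES-KOH buffer with MgCl2, 6-10 mM potassium citrate, glutathione and BSA. Substrate solution held 1 mM ATP, 0.8 mM acetyl CoA and 25-50 mM bicarbonate. After 1–3 h at room temperature, malonyl CoA/(malonyl+acetyl CoA) was read by negative-mode MALDI-TOF MS; citrate, bicarbonate and time varied by enzyme lot.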

Sequence of recombinant human ACC2 (O00763 27-2458): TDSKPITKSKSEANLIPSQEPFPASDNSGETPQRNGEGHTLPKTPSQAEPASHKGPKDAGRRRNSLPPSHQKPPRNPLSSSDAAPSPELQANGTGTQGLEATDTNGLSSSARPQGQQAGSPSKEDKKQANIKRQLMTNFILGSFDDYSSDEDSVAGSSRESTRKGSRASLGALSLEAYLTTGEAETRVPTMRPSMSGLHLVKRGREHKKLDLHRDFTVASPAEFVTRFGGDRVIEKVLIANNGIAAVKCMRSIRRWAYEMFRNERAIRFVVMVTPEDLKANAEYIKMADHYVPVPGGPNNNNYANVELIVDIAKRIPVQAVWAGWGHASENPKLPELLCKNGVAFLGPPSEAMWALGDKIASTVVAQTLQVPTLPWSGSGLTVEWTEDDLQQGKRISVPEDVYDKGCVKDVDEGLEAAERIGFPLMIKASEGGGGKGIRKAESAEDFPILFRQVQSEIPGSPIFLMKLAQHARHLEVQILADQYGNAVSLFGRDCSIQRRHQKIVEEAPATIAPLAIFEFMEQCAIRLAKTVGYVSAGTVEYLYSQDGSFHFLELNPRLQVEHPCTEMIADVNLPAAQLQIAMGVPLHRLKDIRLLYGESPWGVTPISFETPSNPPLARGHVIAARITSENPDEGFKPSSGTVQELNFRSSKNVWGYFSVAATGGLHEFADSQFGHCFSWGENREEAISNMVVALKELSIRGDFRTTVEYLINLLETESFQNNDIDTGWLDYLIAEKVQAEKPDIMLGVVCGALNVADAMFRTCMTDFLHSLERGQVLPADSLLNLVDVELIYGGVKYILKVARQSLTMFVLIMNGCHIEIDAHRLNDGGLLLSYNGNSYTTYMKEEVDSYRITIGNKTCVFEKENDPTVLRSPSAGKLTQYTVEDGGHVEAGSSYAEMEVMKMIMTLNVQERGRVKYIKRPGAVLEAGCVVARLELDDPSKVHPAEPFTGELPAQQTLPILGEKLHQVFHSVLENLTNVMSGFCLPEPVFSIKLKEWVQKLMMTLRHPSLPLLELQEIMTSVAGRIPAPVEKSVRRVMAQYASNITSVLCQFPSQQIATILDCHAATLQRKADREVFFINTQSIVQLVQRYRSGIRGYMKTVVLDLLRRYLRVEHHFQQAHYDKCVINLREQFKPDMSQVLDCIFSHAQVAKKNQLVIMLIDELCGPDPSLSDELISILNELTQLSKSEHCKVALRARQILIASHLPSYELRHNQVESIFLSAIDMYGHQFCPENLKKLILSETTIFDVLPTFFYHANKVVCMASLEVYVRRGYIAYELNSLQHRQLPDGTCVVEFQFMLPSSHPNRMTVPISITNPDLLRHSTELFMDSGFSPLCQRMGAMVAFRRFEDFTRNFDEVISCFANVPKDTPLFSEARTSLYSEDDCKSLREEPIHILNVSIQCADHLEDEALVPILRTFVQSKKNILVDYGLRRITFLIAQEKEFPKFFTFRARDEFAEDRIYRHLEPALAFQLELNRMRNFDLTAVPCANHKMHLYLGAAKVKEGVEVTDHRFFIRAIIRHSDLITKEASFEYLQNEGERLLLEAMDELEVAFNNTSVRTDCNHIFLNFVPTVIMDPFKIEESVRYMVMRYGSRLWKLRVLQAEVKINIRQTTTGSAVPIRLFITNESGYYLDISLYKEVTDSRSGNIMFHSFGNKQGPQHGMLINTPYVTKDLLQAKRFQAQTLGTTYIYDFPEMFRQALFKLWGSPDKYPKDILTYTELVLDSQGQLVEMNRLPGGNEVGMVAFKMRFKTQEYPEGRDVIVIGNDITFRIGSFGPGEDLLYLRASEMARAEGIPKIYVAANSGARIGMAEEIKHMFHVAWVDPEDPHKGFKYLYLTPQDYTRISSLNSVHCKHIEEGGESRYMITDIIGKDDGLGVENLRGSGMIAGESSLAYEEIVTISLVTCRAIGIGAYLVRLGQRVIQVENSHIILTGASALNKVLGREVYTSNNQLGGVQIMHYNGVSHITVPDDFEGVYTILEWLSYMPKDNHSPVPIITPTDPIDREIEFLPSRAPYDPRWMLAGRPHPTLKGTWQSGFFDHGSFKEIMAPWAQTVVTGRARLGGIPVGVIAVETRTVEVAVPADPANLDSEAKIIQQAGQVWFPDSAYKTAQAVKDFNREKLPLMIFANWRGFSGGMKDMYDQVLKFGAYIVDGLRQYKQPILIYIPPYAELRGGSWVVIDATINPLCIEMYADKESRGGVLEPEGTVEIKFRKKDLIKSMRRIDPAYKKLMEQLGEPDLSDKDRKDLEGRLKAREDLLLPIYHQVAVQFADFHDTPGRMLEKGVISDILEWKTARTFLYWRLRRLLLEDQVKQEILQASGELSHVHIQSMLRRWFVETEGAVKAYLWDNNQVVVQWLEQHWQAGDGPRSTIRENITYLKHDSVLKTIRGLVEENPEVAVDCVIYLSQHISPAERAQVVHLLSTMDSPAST

IC50 [nM] | SMILES
87 | CC(=O)N[C@@H](C)CO[C@H]1C[C@H](COc2ncnc(OCc3ccc(C(F)(F)F)nc3)c2Cl)C1 [Compound I-351]
22 | CC(=O)N[C@@H](C)CO[C@H]1C[C@H](COc2nccc3c2ccn3CC2CC2)C1 [Compound I-352]
11 | CC(=O)N[C@@H](C)CO[C@H]1C[C@H](COc2ncnc(OCc3ncc(Cl)cn3)c2Cl)C1 [Compound I-353]
11 | CC(=O)N[C@@H](C)CO[C@H]1C[C@H](COc2ncnc(OCc3ccc(F)cn3)c2Cl)C1 [Compound I-354]
18 | CC(=O)N[C@@H](C)CO[C@H]1C[C@H](COc2ncnc(OCC3CC3)c2Cl)C1 [Compound I-355]
66 | CC(=O)N[C@@H](C)CO[C@H]1C[C@H](COc2ncnc(OCC3CC3(F)F)c2Cl)C1 (stereo partly shown) [Compound I-356]
103 | CC(=O)N[C@@H](C)CO[C@H]1C[C@H](COc2ncnc(OCC(C)(F)F)c2Cl)C1 [Compound I-357]
19 | CC(=O)N[C@@H](C)CO[C@H]1C[C@H](COc2nccc(N3CCCC3)c2F)C1 [Compound I-358]
21 | CC(=O)N[C@@H](C)CO[C@H]1C[C@H](COc2ncnc3c2ccn3CC2CC2)C1 [Compound I-359]
17 | CC(=O)N[C@@H](C)CO[C@H]1C[C@H](COc2ncnc(OCc3cc(F)ccn3)c2Cl)C1 [Compound I-360]
570 | CC(=O)N[C@@H](C)CO[C@H]1C[C@H](COc2ncnc(OCc3ccc(Cl)nn3)c2Cl)C1 [Compound I-361]
130 | CC(=O)N[C@@H](C)CO[C@H]1C[C@H](COc2ncnc3c2ccn3C(C)C2CC2)C1 (stereo partly shown) [Compound I-362]
32 | CC(=O)N[C@@H](C)CO[C@H]1C[C@H](COc2ncnc(OCc3cc(F)ccn3)c2F)C1 [Compound I-363]
44 | CC(=O)N[C@@H](C)CO[C@H]1C[C@H](COc2nccc(N3CCC(F)(F)C3)c2Cl)C1 [Compound I-364]
100 | CC(=O)N[C@@H](C)CO[C@H]1C[C@H](COc2nccc(OC3C[C@@H]4CC[C@@H]3C4)c2Cl)C1 (stereo partly shown) [Compound I-365]
31 | CC(=O)N[C@@H](C)CO[C@H]1C[C@H](COc2nccc(OC3C[C@@H]4CC[C@@H]3C4)c2Cl)C1 (stereo partly shown) [Compound I-366]
113 | CC(=O)N[C@@H](C)CO[C@H]1C[C@H](COc2nccc(OC3CCC3)c2Cl)C1 [Compound I-367]
48 | CC(=O)N[C@@H](C)CO[C@H]1C[C@H](COc2nccc(OC3CCCCC3)c2Cl)C1 [Compound I-368]
19 | CC(=O)N[C@@H](C)CO[C@H]1C[C@H](COc2nccc(OCC3CC3C)c2Cl)C1 (stereo partly shown) [Compound I-369]
13 | CC(=O)N[C@@H](C)CO[C@H]1C[C@H](COc2nccc(OCC3(C)CC3)c2Cl)C1 [Compound I-370]
198 | CC(=O)N[C@@H](C)CO[C@H]1C[C@H](COc2nccc(OCC3(C#N)CC3)c2Cl)C1 [Compound I-371]
13 | CC(=O)N[C@@H](C)CO[C@H]1C[C@H](COc2nccc(OCC(C)(C)C)c2Cl)C1 [Compound I-372]
894 | COCCOc1ccnc(OC[C@H]2C[C@H](OC[C@H](C)NC(C)=O)C2)c1Cl [Compound I-373]
637 | CC(=O)N[C@@H](C)CO[C@H]1C[C@H](COc2nccc(OCC3COC3)c2Cl)C1 [Compound I-374]
102 | CC(=O)N[C@@H](C)CO[C@H]1C[C@H](COc2nccc(N3CCC(F)(F)CC3)c2Cl)C1 [Compound I-375]
7 | CC(=O)N[C@@H](C)CO[C@H]1C[C@H](COc2ncnc(OCc3ccccc3)c2Cl)C1 [Compound I-376]

IC50 [nM] | SMILES
39 | CC(=O)N[C@@H](C)CO[C@H]1C[C@H](COc2ncnc(OCc3ccccn3)c2Cl)C1 [Compound I-377]
144 | CC(=O)N[C@@H](C)CO[C@H]1C[C@H](COc2nccc(N3CCCC3)c2C)C1 [Compound I-378]
258 | COc1c(-c2ccc(F)cc2)ccnc1OC[C@H]1C[C@H](OC[C@H](C)NC(C)=O)C1 [Compound I-379]
59 | CC(=O)N[C@@H](C)CO[C@H]1C[C@H](COc2nccc(-c3ncc(C(F)(F)F)cn3)c2C)C1 [Compound I-380]
155 | CC(=O)N[C@@H](C)CO[C@H]1C[C@H](COc2nccc3c2cnn3CC2CC2)C1 [Compound I-381]
176 | CC(=O)N[C@@H](C)CO[C@H]1C[C@H](COc2nccc3c2OCCN3Cc2ccccc2)C1 [Compound I-382]
8 | CC(=O)N[C@@H](C)CO[C@H]1C[C@H](COc2ncnc(OCc3ccccc3)c2F)C1 [Compound I-383]
364 | CC(=O)N[C@@H](C)CO[C@H]1C[C@H](COc2ncnc(OCc3cccc(Cl)n3)c2Cl)C1 [Compound I-384]
4 | CC(=O)N[C@@H](C)CO[C@H]1C[C@H](COc2ncnc(OCc3cc(Cl)ccn3)c2Cl)C1 [Compound I-385]
70 | CC(=O)N[C@@H](C)CO[C@H]1C[C@H](COc2ncnc(OCc3ncccc3Cl)c2Cl)C1 [Compound I-386]
392 | CC(=O)N[C@@H](C)CO[C@H]1C[C@H](COc2nccc3c2cnn3Cc2ccccc2)C1 [Compound I-387]
14 | CC(=O)N[C@@H](C)CO[C@H]1C[C@H](COc2ncnc(OCc3ccccc3F)c2Cl)C1 [Compound I-388]
8 | CC(=O)N[C@@H](C)CO[C@H]1C[C@H](COc2ncnc(OCc3cccc(F)c3)c2Cl)C1 [Compound I-389]
7 | CC(=O)N[C@@H](C)CO[C@H]1C[C@H](COc2ncnc(OCc3ccc(F)cc3)c2Cl)C1 [Compound I-390]
21 | CC(=O)N[C@@H](C)CO[C@H]1C[C@H](COc2ncnc(NCc3ccccc3)c2Cl)C1 [Compound I-391]
69 | CC(=O)N[C@@H](C)CO[C@H]1C[C@H](COc2ncnc(OCc3cccnc3)c2Cl)C1 [Compound I-392]
155 | CC(=O)N[C@@H](C)CO[C@H]1C[C@H](COc2ncnc(OCc3ccncc3)c2Cl)C1 [Compound I-393]
18 | CC(=O)N[C@@H](C)CO[C@H]1C[C@](C)(COc2nccc(-c3ccc(F)cc3)c2Cl)C1 [Compound I-394]
7 | CC(=O)N[C@@H](C)CO[C@H]1C[C@H](COc2nccc(OCc3ccccc3)c2Cl)C1 [Compound I-395]
8 | CC(=O)N[C@@H](C)CO[C@H]1C[C@H](COc2ncnc(OCc3ccc(Cl)cn3)c2Cl)C1 [Compound I-396]
31 | CC(=O)N[C@@H](C)CO[C@H]1C[C@H](COc2ncnc(Oc3noc4ccccc34)c2Cl)C1 [Compound I-397]
115 | CC(=O)N[C@@H](C)CO[C@H]1C[C@H](COc2ncnc(-n3oc4ccccc4c3=O)c2Cl)C1 [Compound I-398]
40 | CC(=O)N[C@@H](C)CO[C@H]1C[C@H](COc2ncnc(Oc3nsc4ccccc34)c2Cl)C1 [Compound I-399]
17 | CC(=O)N[C@@H](C)CO[C@]1(C)C[C@@H](COc2nccc(-c3ccc(F)cc3)c2Cl)C1 [Compound I-400]
23 | CC(=O)N[C@@H](C)CO[C@H]1C[C@H](COc2nccc(NCc3ccccc3)c2Cl)C1 [Compound I-401]
83 | CC(=O)N[C@@H](C)CO[C@H]1C[C@H](COc2ncnc(N(C)Cc3ccccc3)c2Cl)C1 [Compound I-402]
